pIC50: −log10 of the molar value.

The target of this assay is T1, MAGL (recombinant wild-type) (Homo sapiens, UniProt Q99685).
T1 sequence (Q99685 1-303): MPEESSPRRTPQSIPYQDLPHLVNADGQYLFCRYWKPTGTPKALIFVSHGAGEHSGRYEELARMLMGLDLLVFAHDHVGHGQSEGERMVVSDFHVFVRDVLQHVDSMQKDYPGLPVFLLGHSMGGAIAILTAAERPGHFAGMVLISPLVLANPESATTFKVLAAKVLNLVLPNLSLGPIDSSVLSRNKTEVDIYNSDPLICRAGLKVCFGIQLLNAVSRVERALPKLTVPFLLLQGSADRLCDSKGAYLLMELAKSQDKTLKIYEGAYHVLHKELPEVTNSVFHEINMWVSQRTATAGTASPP
As to the kind of experiment: 4-NPA assay: MAGL inhibitory activity by hydrolysis of 4-nitrophenylacetate, absorbance at 405 nm. The assay is classed as biochemical. Particulars: 4-NPA assay (values without footnote [b]). An outline of the steps:
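Final assay: 1 nM MAGL and 300 μM 4-nitrophenylacetate in 50 mM Tris, 1 mM EDTA, at RT. Compounds (25 μM–1.7 nM, 3-fold steps) were preincubated 15 min with enzyme. A405 was read 5 min after substrate addition and again after 80 min; activity was taken as the difference between reads.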

In general, pIC50 refers to the negative decadic logarithm of the IC50, by convention in mol/L. Turning to `CC(OC1CN(c2ccc(C(=O)N3CCN(c4nc5nc(Cl)ccc5o4)CC3)cc2)C1)C(F)(F)F` (stereo not drawn) [Example 208, (4-(5-chlorooxazolo[4,5-b]pyridin-2-yl)piperazin-1-yl)(4-(3-((1,1,1-trifluoropropan-2-yl)oxy)azetidin-1-yl)phenyl)methanone], the pIC50 is 7.80. For `CCOC1(C)CN(c2ccc(C(=O)N3CCN(c4nc5nc(Cl)ccc5o4)CC3)cc2)C1` [Example 209, (4-(5-chlorooxazolo[4,5-b]pyridin-2-yl)piperazin-1-yl)(4-(3-ethoxy-3-methylazetidin-1-yl)phenyl)methanone], the pIC50 is 6.63. To `Cc1ccc2oc(N3CCN(C(=O)c4ccc(N5CC(OC(C)C(F)(F)F)C5)c(F)c4)CC3)nc2n1` (stereo not drawn) [Example 210, (3-fluoro-4-(3-((1,1,1-trifluoropropan-2-yl)oxy)azetidin-1-yl)phenyl)(4-(5-methyloxazolo[4,5-b]pyridin-2-yl)piperazin-1-yl)methanone] belongs 7.62; to `Cc1ccc2oc(N3CCN(C(=O)c4ccc(N5CC(OC(C)C(F)(F)F)C5)cc4C)CC3)nc2n1` (stereo not drawn) [Example 211, (2-methyl-4-(3-((1,1,1-trifluoropropan-2-yl)oxy)azetidin-1-yl)phenyl)(4-(5-methyloxazolo[4,5-b]pyridin-2-yl)piperazin-1-yl)methanone], 6.46. On to `Cc1ccc2oc(N3CCN(C(=O)c4c(F)cc(N5CC(OC(C)C(F)(F)F)C5)cc4F)CC3)nc2n1` (stereo not drawn) [Example 212, (2,6-difluoro-4-(3-((1,1,1-trifluoropropan-2-yl)oxy)azetidin-1-yl)phenyl)(4-(5-methyloxazolo[4,5-b]pyridin-2-yl)piperazin-1-yl)methanone], for which the pIC50 is 5.95.

Turning to `Cc1ccc2oc(N3CCN(C(=O)c4ccc(N5CC(OC(C)C(F)(F)F)C5)cc4Cl)CC3)nc2n1` (stereo not drawn) [Example 213, (2-chloro-4-(3-((1,1,1-trifluoropropan-2-yl)oxy)azetidin-1-yl)phenyl)(4-(5-methyloxazolo[4,5-b]pyridin-2-yl)piperazin-1-yl)methanone], the pIC50 is 7.00. The same measure for `Cc1ccc2oc(N3CCN(C(=O)c4ccc(N5CC(OC(C)C(F)(F)F)C5)nc4)CC3)nc2n1` (stereo not drawn) [Example 214, (4-(5-methyloxazolo[4,5-b]pyridin-2-yl)piperazin-1-yl)(6-(3-((1,1,1-trifluoropropan-2-yl)oxy)azetidin-1-yl)pyridin-3-yl)methanone]: 6.77. Regarding `CCC(C)(C)OC1CN(c2ccc(C(=O)N3CCN(c4nc5nc(C)ccc5o4)CC3)cn2)C1` [Example 215, (4-(5-methyloxazolo[4,5-b]pyridin-2-yl)piperazin-1-yl)(6-(3-(tert-pentyloxy)azetidin-1-yl)pyridin-3-yl)methanone], the pIC50 is 7.15. For `Cc1ccc2oc(N3CCN(C(=O)c4cnc(N5CC(OC(C)C(F)(F)F)C5)c(C)c4)CC3)nc2n1` (stereo not drawn) [Example 216, (5-methyl-6-(3-((1,1,1-trifluoropropan-2-yl)oxy)azetidin-1-yl)pyridin-3-yl)(4-(5-methyloxazolo[4,5-b]pyridin-2-yl)piperazin-1-yl)methanone], the pIC50 is 6.95.

On to `Cc1ccc2oc(N3CCN(C(=O)c4cnc(N5CC(OC(C)C(F)(F)F)C5)c(F)c4Cl)CC3)nc2n1` (stereo not drawn) [Example 217, (4-chloro-5-fluoro-6-(3-((1,1,1-trifluoropropan-2-yl)oxy)azetidin-1-yl)pyridin-3-yl)(4-(5-methyloxazolo[4,5-b]pyridin-2-yl)piperazin-1-yl)methanone], for which the pIC50 was 6.78. For the compound `Cc1ccc2oc(N3CCN(C(=O)c4ccc(N5CC(OC(C)C(F)(F)F)C5)nn4)CC3)nc2n1` (stereo not drawn) [Example 218, (4-(5-methyloxazolo[4,5-b]pyridin-2-yl)piperazin-1-yl)(6-(3-((1,1,1-trifluoropropan-2-yl)oxy)azetidin-1-yl)pyridazin-3-yl)methanone], the pIC50 is 5.81.

Consider `Cc1ccc2oc(N3CCN(C(=O)c4cnc(N5CC(OC(C)C(F)(F)F)C5)nc4)CC3)nc2n1` (stereo not drawn) [Example 219, (4-(5-methyloxazolo[4,5-b]pyridin-2-yl)piperazin-1-yl)(2-(3-((1,1,1-trifluoropropan-2-yl)oxy)azetidin-1-yl)pyrimidin-5-yl)methanone], for which the pIC50 is 6.66.

Turning to `Cc1ccc2oc(N3CCN(C(=O)c4cnc(N5CC(OC(C)C(F)(F)F)C5)cc4C)CC3)nc2n1` (stereo not drawn) [Example 220, (4-methyl-6-(3-((1,1,1-trifluoropropan-2-yl)oxy)azetidin-1-yl)pyridin-3-yl)(4-(5-methyloxazolo[4,5-b]pyridin-2-yl)piperazin-1-yl)methanone], the pIC50 was 5.40. On to `Cc1ccc2oc(N3CCN(C(=O)c4cnc(N5CC6(CCC6(F)F)C5)cc4C)CC3)nc2n1` [Example 221, (6-(5,5-difluoro-2-azaspiro[3.3]heptan-2-yl)-4-methylpyridin-3-yl)(4-(5-methyloxazolo[4,5-b]pyridin-2-yl)piperazin-1-yl)methanone], for which the pIC50 is 4.88.

Turning to `Cc1ccc2oc(N3CCN(C(=O)c4cnc(N5CCC6(C5)CC6(F)F)nc4)CC3)nc2n1` (stereo not drawn) [Example 222, (2-(1,1-difluoro-5-azaspiro[2.4]heptan-5-yl)pyrimidin-5-yl)(4-(5-methyloxazolo[4,5-b]pyridin-2-yl)piperazin-1-yl)methanone], the pIC50 is 6.10. On to `Cc1ccc2oc(N3CCN(C(=O)c4cnc(N5CCC6(C5)CC6(F)F)cc4C)CC3)nc2n1` (stereo not drawn) [Example 223, (6-(1,1-difluoro-5-azaspiro[2.4]heptan-5-yl)-4-methylpyridin-3-yl)(4-(5-methyloxazolo[4,5-b]pyridin-2-yl)piperazin-1-yl)methanone], for which the pIC50 is 5.35. As for `Cc1ccc2oc(N3CCN(C(=O)c4cnc(N5CC(OC(C)C(F)(F)F)C5)c(F)c4)CC3)nc2n1` (stereo not drawn) [Example 224, (5-fluoro-6-(3-((1,1,1-trifluoropropan-2-yl)oxy)azetidin-1-yl)pyridin-3-yl)(4-(5-methyloxazolo[4,5-b]pyridin-2-yl)piperazin-1-yl)methanone], the pIC50 was 7.05. For `Cc1ccc2oc(N3CCN(C(=O)c4cnc(N5CCC6(C5)CC6(F)F)c(C)c4)CC3)nc2n1` (stereo not drawn) [Example 225, (6-(1,1-difluoro-5-azaspiro[2.4]heptan-5-yl)-5-methylpyridin-3-yl)(4-(5-methyloxazolo[4,5-b]pyridin-2-yl)piperazin-1-yl)methanone], the pIC50 was 6.61. As to `Cc1ccc2oc(N3CCN(C(=O)c4cnc(N5CC(OC(C)C(F)(F)F)C5)c(Cl)c4)CC3)nc2n1` (stereo not drawn) [Example 226, (5-chloro-6-(3-((1,1,1-trifluoropropan-2-yl)oxy)azetidin-1-yl)pyridin-3-yl)(4-(5-methyloxazolo[4,5-b]pyridin-2-yl)piperazin-1-yl)methanone], the pIC50 was 7.42. In the case of `Cc1ccc2oc(N3CCN(C(=O)c4cnc(N5CCC6(C5)CC6(F)F)c(Cl)c4)CC3)nc2n1` (stereo not drawn) [Example 227, (5-chloro-6-(1,1-difluoro-5-azaspiro[2.4]heptan-5-yl)pyridin-3-yl)(4-(5-methyloxazolo[4,5-b]pyridin-2-yl)piperazin-1-yl)methanone], the pIC50 is 7.21. Regarding `Cc1ccc2oc(N3CCN(C(=O)c4cnc(N5CCC6(C5)CC6(F)F)c(F)c4)CC3)nc2n1` (stereo not drawn) [Example 228, (6-(1,1-difluoro-5-azaspiro[2.4]heptan-5-yl)-5-fluoropyridin-3-yl)(4-(5-methyloxazolo[4,5-b]pyridin-2-yl)piperazin-1-yl)methanone], the pIC50 was 6.82. As to `CC(OC1CN(c2ncc(C(=O)N3CCN(c4nc5nc(Cl)ccc5o4)CC3)cc2F)C1)C(F)(F)F` (stereo not drawn) [Example 229, (4-(5-chlorooxazolo[4,5-b]pyridin-2-yl)piperazin-1-yl)(5-fluoro-6-(3-((1,1,1-trifluoropropan-2-yl)oxy)azetidin-1-yl)pyridin-3-yl)methanone], the pIC50 was 7.46. To `O=C(c1cnc(N2CCC3(C2)CC3(F)F)c(F)c1)N1CCN(c2nc3nc(Cl)ccc3o2)CC1` (stereo not drawn) [Example 230, (4-(5-chlorooxazolo[4,5-b]pyridin-2-yl)piperazin-1-yl)(6-(1,1-difluoro-5-azaspiro[2.4]heptan-5-yl)-5-fluoropyridin-3-yl)methanone] belongs 7.25; to `CC(C)(C)Cc1nc(-c2ccc(C(=O)N3CCN(c4nc5nc(C#N)ccc5o4)CC3)cc2)no1` [Example 260, 2-(4-(4-(5-neopentyl-1,2,4-oxadiazol-3-yl)benzoyl)piperazin-1-yl)oxazolo[4,5-b]pyridine-5-carbonitrile], 6.52. To `CC(C)(C)Cc1nc(-c2ccc(C(=O)N3CCN(c4nc5nc(C(F)(F)F)ccc5o4)CC3)cc2)no1` [Example 261, (4-(5-neopentyl-1,2,4-oxadiazol-3-yl)phenyl)(4-(5-(trifluoromethyl)oxazolo[4,5-b]pyridin-2-yl)piperazin-1-yl)methanone] belongs 7.40; to `CC(F)(F)Cc1nc(-c2ccc(C(=O)N3CCN(c4nc5nc(Cl)ccc5o4)CC3)cc2)no1` [Example 262, [4-(5-chlorooxazolo[4,5-b]pyridin-2-yl)piperazin-1-yl]-[4-[5-(2,2-difluoropropyl)-1,2,4-oxadiazol-3-yl]phenyl]methanone], 7.19; to `CCCCc1nc2ccc(C(=O)N3CCN(c4nc5nc(C)ccc5o4)CC3)cc2o1` [Example 263, (2-butyl-1,3-benzoxazol-6-yl)-[4-(5-methyloxazolo[4,5-b]pyridin-2-yl)piperazin-1-yl]methanone], 6.74.

Source of the values: US20220135591A1, “HETEROCYCLIC COMPOUNDS AS INHIBITORS OF MONOACYLGLYCEROL LIPASE (MAGL)” (Hoffmann-La Roche Inc., priority 2019, published 2022).
